Laboratory results reported in US12559509B1, “Citrate coordination complex of an orally-delivered beta-lactamase inhibitor and uses thereof” (priority 2023, dated 2026).
Where a name gives a salt, the structure may show the parent alone. One block for each compound: values may come before it.

Columns and labels:
[1] = Excipient compatibility at 50° C., HPLC purity; format: physicochemical; settings: for chemical stability in the presence of the excipients (in words): accelerated data
Method: The compatibility of the drug substances with select functional excipients was confirmed by comparing the assay and purity of samples stored at 50° C. for 5 weeks to the drug substance control samples. The excipients tested included: microcrystalline cellulose (binder); magnesium stearate (lubricant); sodium starch glycolate (disintegrant); and colloidal silica (glidant). […] The samples were transferred to a 3-dram glass vial with a tight-fitting cap and placed in a 50° C. oven.

[2] = monkeys, reported; cited from earlier work
[3] = Chemical stability of drug substance controls and binary blend, HPLC purity; format: physicochemical; settings: for degradation (in words): controls and binary blend, 25° C. and 40° C., through 12 weeks
[4] = Dissolution testing (Apparatus II method) of capsule prototypes; format: physicochemical; settings: FDC capsule with ceftibuten dihydrate, 900 mL pH 6.8 50 mM sodium bicarbonate buffer, 75 RPM paddle
Method: In some embodiments, the citrate coordination complex allows for the development of a dry powder, immediate release formulation as compared to other forms, such as the ethanolate, which could not be formulated directly as an immediate release formulation. […] Dissolution testing (Apparatus II method) was performed using 900 mL of pH 6.8 50 mM sodium bicarbonate buffer solution and a 75 RPM paddle speed.

[5] = Dynamic Vapor Sorption (DVS) analysis; format: physicochemical; settings: for solid form after DVS cycle, by XRPD: 0% RH to 98% RH and back to 0% RH; for weight gain: above 85% RH (up to 98% RH); for weight gain with increasing RH: between 0% RH and 85% RH
Method: Moisture sorption/desorption data were collected on a DVS-intrinsic vapor sorption analyzer (Surface Measurement Systems NA, Allentown, PA, USA) and operated with DVS-intrinsic control software (Version 1.0.5.1). Samples were not dried prior to analysis. Sorption and desorption data were collected over a range from 5% to 98% relative humidity (RH) via 10% RH increments under a nitrogen purge. The equilibrium criterion used for analysis was less than 0.005% weight change in 10 min with a maximum equilibration time of 3 h.
The DVS isotherm of Form B is qualitatively similar to that of Form A. Form B lost 0.1 wt % upon equilibration at ˜0% RH.

[6] = drug substance control, 25° C. Storage, 0 weeks
[7] = drug substance control, 25° C. Storage, 5 weeks
[8] = drug substance control, 25° C. Storage, 8 weeks
[9] = drug substance control, 25° C. Storage, 12 weeks
[10] = drug substance control, 40° C. Storage, 0 weeks
[11] = drug substance control, 40° C. Storage, 5 weeks
[12] = drug substance control, 40° C. Storage, 8 weeks
[13] = drug substance control, 40° C. Storage, 12 weeks
[14] = in binary Blend, 25° C. Storage, 0 weeks
[15] = in binary Blend, 25° C. Storage, 5 weeks
[16] = in binary Blend, 25° C. Storage, 8 weeks
[17] = in binary Blend, 25° C. Storage, 12 weeks
[18] = in binary Blend, 40° C. Storage, 0 weeks
[19] = in binary Blend, 40° C. Storage, 8 weeks
[20] = in binary Blend, 40° C. Storage, 12 weeks

SMILES: Nc1nc(/C(=C/CC(=O)O)C(=O)N[C@@H]2C(=O)N3C(C(=O)O)=CCS[C@H]23)cs1 [Ceftibuten, reference compound]
- chemical stability in the presence of the excipients (in words) [1]: comparable to the stability for the drug substance controls
- bioavailability [2]: ~20%

SMILES: CCC(=O)N[C@@H](Cc1cccc(C(=O)OCOC(=O)C(CC)CC)c1O)B(O)O.O=C(O)CC(O)(CC(=O)O)C(=O)O [(R)-(2-(3-((((2-ethylbutanoyl)oxy)methoxy)carbonyl)-2-hydroxyphenyl)-1-propionamidoethyl)boronic acid citrate]
- solid form after DVS cycle, by XRPD [5]: XRPD of the sample matched that of the material before DVS analysis
- Change In Mass (%)-ref, Desorption ([5]; Target RH 0.0 %): −0.17%
- Change In Mass (%)-ref, Sorption ([5]; Target RH 0.0 %): −0.07%
- Change In Mass (%)-ref, Desorption ([5]; Target RH 5.0 %): −0.13%
- Change In Mass (%)-ref, Hysteresis ([5]; Target RH 5.0 %): −0.07%
- Change In Mass (%)-ref, Sorption ([5]; Target RH 5.0 %): −0.05%
- Change In Mass (%)-ref, Desorption ([5]; Target RH 15.0 %): −0.05%
- Change In Mass (%)-ref, Hysteresis ([5]; Target RH 15.0 %): −0.08%
- Change In Mass (%)-ref, Sorption ([5]; Target RH 15.0 %): 0.04%
- Change In Mass (%)-ref, Desorption ([5]; Target RH 25.0 %): 0.06%
- Change In Mass (%)-ref, Hysteresis ([5]; Target RH 25.0 %): −0.07%
- Change In Mass (%)-ref, Sorption ([5]; Target RH 25.0 %): 0.13%
- Change In Mass (%)-ref, Desorption ([5]; Target RH 35.0 %): 0.13%
- Change In Mass (%)-ref, Hysteresis ([5]; Target RH 35.0 %): −0.04%
- Change In Mass (%)-ref, Sorption ([5]; Target RH 35.0 %): 0.17%
- Change In Mass (%)-ref, Desorption ([5]; Target RH 45.0 %): 0.25%
- Change In Mass (%)-ref, Hysteresis ([5]; Target RH 45.0 %): −0.06%
- Change In Mass (%)-ref, Sorption ([5]; Target RH 45.0 %): 0.31%
- Change In Mass (%)-ref, Desorption ([5]; Target RH 55.0 %): 0.43%
- Change In Mass (%)-ref, Hysteresis ([5]; Target RH 55.0 %): 0.02%
- Change In Mass (%)-ref, Sorption ([5]; Target RH 55.0 %): 0.41%
- Change In Mass (%)-ref, Desorption ([5]; Target RH 65.0 %): 0.56%
- Change In Mass (%)-ref, Hysteresis ([5]; Target RH 65.0 %): 0.03%
- Change In Mass (%)-ref, Sorption ([5]; Target RH 65.0 %): 0.53%
- Change In Mass (%)-ref, Desorption ([5]; Target RH 85.0 %): 1.11%
- Change In Mass (%)-ref, Hysteresis ([5]; Target RH 85.0 %): 0.13%
- Change In Mass (%)-ref, Sorption ([5]; Target RH 85.0 %): 0.98%
- Change In Mass (%)-ref, Desorption ([5]; Target RH 95.0 %): 11.32%
- Change In Mass (%)-ref, Hysteresis ([5]; Target RH 95.0 %): 2.85%
- Change In Mass (%)-ref, Sorption ([5]; Target RH 95.0 %): 8.47%
- Change In Mass (%)-ref, Desorption ([5]; Target RH 98.0 %): 11.18%
- Change In Mass (%)-ref, Sorption ([5]; Target RH 98.0 %): 11.18%
- Change In Mass (%)-ref, Desorption ([5]; Target RH […]): 0.79%
- Change In Mass (%)-ref, Hysteresis ([5]; Target RH […]): 0.12%
- Change In Mass (%)-ref, Sorption ([5]; Target RH […]): 0.66%
- weight gain [5]: 11.2%
- weight lost upon equilibration ([5]; at ˜0% RH): 0.1 wt %
- weight gain with increasing RH [5]: ~1.0 wt %

SMILES: CCOB1Oc2c(cccc2C(=O)OCOC(=O)C(CC)CC)C[C@@H]1NC(=O)CC [Compound 1 Ethanolate, ((2-ethylbutanoyl)oxy)methyl (R)-2-ethoxy-3-propionamido-3,4-dihydro-2H-benzo[e][1,2]oxaborinine-8-carboxylate]
- release of the drug substance ([4]; at 60 minutes): < 40%

Further lines, with some results ahead:

- degradation (in words) [3]: temperature dependent degradation
- HPLC purity (% peak area) [3, 6]: 98.6%
- HPLC purity (% peak area) [3, 7]: 98.6%
- HPLC purity (% peak area) [3, 8]: 98.6%
- HPLC purity (% peak area) [3, 9]: 98.4%
- HPLC purity (% peak area) [3, 10]: 98.6%
- HPLC purity (% peak area) [3, 11]: 98.4%
- HPLC purity (% peak area) [3, 12]: 96.7%
- HPLC purity (% peak area) [3, 13]: 92.8%
- HPLC purity (% peak area) [3, 14]: 98.4%
- HPLC purity (% peak area) [3, 15]: 98.6%
- HPLC purity (% peak area) [3, 16]: 98.3%
- HPLC purity (% peak area) [3, 17]: 96.8%
- HPLC purity (% peak area) [3, 18]: 97.5%
- HPLC purity (% peak area) [3, 19]: 94.8%
- HPLC purity (% peak area) [3, 20]: 93.7%
- HPLC Purity (Peak Area %) Ceftibuten ([1]; 2 weeks): 99.2%
- HPLC Purity (Peak Area %) Ceftibuten ([1]; 5 weeks): 94.8%
SMILES: Nc1nc(/C(=C/CC(=O)O)C(=O)N[C@@H]2C(=O)N3C(C(=O)O)=CCS[C@H]23)cs1 [Ceftibuten dihydrate, reference compound]

- release of the drug substance ([4]; by 10 minutes): 100%
- degradation (in words) [3]: no degradation
- HPLC purity (% peak area) [3, 6]: 100.0%
- HPLC purity (% peak area) [3, 7]: 100.0%
- HPLC purity (% peak area) [3, 8]: 100.0%
- HPLC purity (% peak area) [3, 9]: 100.0%
- HPLC purity (% peak area) [3, 10]: 100.0%
- HPLC purity (% peak area) [3, 11]: 100.0%
- HPLC purity (% peak area) [3, 12]: 100.0%
- HPLC purity (% peak area) [3, 13]: 100.0%
- HPLC purity (% peak area) [3, 14]: 100.0%
- HPLC purity (% peak area) [3, 15]: 100.0%
- HPLC purity (% peak area) [3, 16]: 100.0%
- HPLC purity (% peak area) [3, 17]: 100.0%
- HPLC purity (% peak area) [3, 18]: 100.0%
- HPLC purity (% peak area) ([3]; in binary Blend, 40° C. Storage, 5 weeks): 100.0%
- HPLC purity (% peak area) [3, 19]: 100.0%
- HPLC purity (% peak area) [3, 20]: 100.0%
- HPLC Purity (Peak Area %) Compound 1 ([1]; 2 weeks): 100.0%
- HPLC Purity (Peak Area %) Compound 1 ([1]; 5 weeks): 100.0%
SMILES: CCC(=O)N[C@@H](Cc1cccc(C(=O)OCOC(=O)C(CC)CC)c1O)B1OC(=O)C(CC(=O)O)(CC(=O)O)O1 [Compound 1 citrate coordination complex, (R)-2,2′-(2-(2-(3-((((2-ethylbutanoyl)oxy)methoxy)carbonyl)-2-hydroxyphenyl)-1-propionamidoethyl)-5-oxo-1,3,2-dioxaborolane-4,4-diyl)diacetic acid]
- chemical stability in the presence of the excipients (in words) [1]: comparable to the stability for the drug substance controls

- solid form after DVS cycle, by XRPD [5]: remained crystalline, as Form A
- hygroscopicity (in words) ([5]; 0-85% RH): non-hygroscopic
- Change In Mass (%)-ref, Desorption ([5]; Target RH 0.0 %): −0.023%
- Change In Mass (%)-ref, Sorption ([5]; Target RH 0.0 %): 0.000%
- Change In Mass (%)-ref, Desorption ([5]; Target RH 5.0 %): 0.012%
- Change In Mass (%)-ref, Hysteresis ([5]; Target RH 5.0 %): −0.006%
- Change In Mass (%)-ref, Sorption ([5]; Target RH 5.0 %): 0.019%
- Change In Mass (%)-ref, Desorption ([5]; Target RH 15.0 %): 0.065%
- Change In Mass (%)-ref, Hysteresis ([5]; Target RH 15.0 %): −0.008%
- Change In Mass (%)-ref, Sorption ([5]; Target RH 15.0 %): 0.073%
- Change In Mass (%)-ref, Desorption ([5]; Target RH 25.0 %): 0.119%
- Change In Mass (%)-ref, Hysteresis ([5]; Target RH 25.0 %): −0.003%
- Change In Mass (%)-ref, Sorption ([5]; Target RH 25.0 %): 0.121%
- Change In Mass (%)-ref, Desorption ([5]; Target RH 35.0 %): 0.167%
- Change In Mass (%)-ref, Hysteresis ([5]; Target RH 35.0 %): 0.008%
- Change In Mass (%)-ref, Sorption ([5]; Target RH 35.0 %): 0.159%
- Change In Mass (%)-ref, Desorption ([5]; Target RH 45.0 %): 0.218%
- Change In Mass (%)-ref, Hysteresis ([5]; Target RH 45.0 %): 0.013%
- Change In Mass (%)-ref, Sorption ([5]; Target RH 45.0 %): 0.205%
- Change In Mass (%)-ref, Desorption ([5]; Target RH 55.0 %): 0.279%
- Change In Mass (%)-ref, Hysteresis ([5]; Target RH 55.0 %): 0.019%
- Change In Mass (%)-ref, Sorption ([5]; Target RH 55.0 %): 0.259%
- Change In Mass (%)-ref, Desorption ([5]; Target RH 65.0 %): 0.356%
- Change In Mass (%)-ref, Hysteresis ([5]; Target RH 65.0 %): 0.038%
- Change In Mass (%)-ref, Sorption ([5]; Target RH 65.0 %): 0.318%
- Change In Mass (%)-ref, Desorption ([5]; Target RH 85.0 %): 0.604%
- Change In Mass (%)-ref, Hysteresis ([5]; Target RH 85.0 %): 0.102%
- Change In Mass (%)-ref, Sorption ([5]; Target RH 85.0 %): 0.502%
- Change In Mass (%)-ref, Desorption ([5]; Target RH 95.0 %): 4.054%
- Change In Mass (%)-ref, Hysteresis ([5]; Target RH 95.0 %): 0.764%
- Change In Mass (%)-ref, Sorption ([5]; Target RH 95.0 %): 3.289%
- Change In Mass (%)-ref, Desorption ([5]; Target RH 98.0 %): 4.006%
- Change In Mass (%)-ref, Sorption ([5]; Target RH 98.0 %): 4.006%
- Change In Mass (%)-ref, Desorption ([5]; Target RH […]): 0.457%
- Change In Mass (%)-ref, Hysteresis ([5]; Target RH […]): 0.056%
- Change In Mass (%)-ref, Sorption ([5]; Target RH […]): 0.401%
- weight gain [5]: 4.0%
- weight gain with increasing RH [5]: 0.5 wt %
SMILES: CCC(=O)N[C@@H](Cc1cccc(C(=O)OCOC(=O)C(CC)CC)c1O)B1OC(=O)C(CC(=O)O)(CC(=O)O)O1 [(R)-(2-(3-((((2-ethylbutanoyl)oxy)methoxy)carbonyl)-2-hydroxyphenyl)-1-propionamidoethyl)boronic acid citrate]
